Cytotoxicity data for 4 molecules are collected here from patent publication US10004222B2, “Small molecule ice recrystallization inhibitors and methods of use thereof” (THE UNIVERSITY OF OTTAWA, priority 2012, dated 2018).

The data set has as its system HepG2 cells. The data set can be described thus: human liver cell viability, MTT assay. It counts as cell-based. The note with it: at the concentration that yielded the highest functionality; overnight at 37° C. How it is done: In the assay, HepG2 cells (human hepatocellular carcinoma cells) were harvested and incubated at 37° C. overnight in a 96-well plate to a concentration of 20,000 cells per well using Minimum Essential Medium (MEM) as media. The following day (or once cells were confluent) the media was removed and cells were incubated at 37° C. overnight with MEM supplemented with desired concentration of PMP-Glc and NOGlc (100 μL of solution added). The following day the plates were centrifuged (700 RPM for 3 minutes) and the solutions were removed. 200 μL of MEM was added to each well, followed by 50 μL of 2.5 mg/mL MTT solution in Hank's Balanced Salt Solution (HBSS) to a final concentration of 0.5 mg/mL MTT per well. Then the plates were incubated for 3 hours at 37° C. After incubation, the plates were centrifuged (700 RPM for 3 minutes) and 200 μL of a 10% TritonX/0.1 N HCl in isopropanol solution was added to each well. The plates were incubated in the dark for 1 hour, then shaken and the absorbance at […] of each well was read. % viability at 37° C. of PMP-Glc at a concentration 11 mM, 22 mM, 44 mM, 110 mM and 220 mM PMP-Glc was measured, and the results are shown in FIG. 12. % viability at 37° C. of NOGlc at a concentration of 0.1 mM, 0.2 mM, 0.5 mM, 1 mM, 2 mM and 5 mM was measured. Also, % viability at 37° C. of PMP-Glc, pFPh-Glc and pBrPh-Glc at a concentration of 11 mM, 22 mM, 44 mM, 55 mM, 110 mM and 220 mM was measured under the same conditions for the MTT Assay described above.
Human liver cell viability in compound (3a), (4a), […], and (1b) was assessed using a 3-(4,5-dimethylthiazol-2-yl)-2,5-diphenyltetrazolium bromide (MTT) Assay. In the assay, HepG2 cells (human hepatocellular carcinoma cells) were harvested and incubated overnight at 37° C. in a 96-well plate to a concentration of 20,000 cells per well using Minimum Essential Medium (MEM) as media. The following day, the media was removed and cells were incubated at 37° C. overnight with 100 μL MEM supplemented with different concentrations of (3a), (2a), (4a), and (1b). The following day, the plates were centrifuged at 1000 rpm for 5 minutes and solutions removed by aspiration. 200 μL of MEM was added to each well, followed by 50 μL of 2.5 mg/mL MTT (dissolved in HBSS). The plates were then incubated at 37° C. for 4 hours. After incubation, the plates were centrifuged at 1000 rpm for 5 minutes and solution was aspirated. […] The plates were incubated at ambient temperature for 3 hours before being shaken and the absorbance at 570 nm of each well was read. % viability at 37° C. of (3a) at 11 mM, 22 mM, 44 mM, 55 mM and 110 mM was measured and the results are shown in FIG. 37. […] Nonetheless, the cytotoxicity of DMSO itself was not determined.
A general note: Formazan colour is commonly taken as a measure of viable cells.

On to `O=C(Nc1ccc(Cl)cc1)[C@H](O)[C@@H](O)[C@H](O)[C@H](O)CO` [(4a), N-(4-chlorophenyl)-D-gluconamide], for which the cytotoxicity entry is given as “minimally cytotoxic relative to DMSO alone”. Take `COc1ccc(NC(=O)[C@H](O)[C@@H](O)[C@H](O)[C@H](O)CO)cc1` [(3a), N-(4-methoxyphenyl)-D-gluconamide]: the cytotoxicity result is reported as “minimally cytotoxic relative to DMSO alone”. In the case of `O=C(Nc1ccccc1F)[C@H](O)[C@@H](O)[C@H](O)[C@H](O)CO` [(2a), N-(2-fluorophenyl)-D-gluconamide], the cytotoxicity entry is recorded as “minimally cytotoxic relative to DMSO alone”. For `O=C(NCc1c(F)cccc1F)[C@H](O)[C@@H](O)[C@H](O)[C@H](O)CO` [(1b), N-(2,6-difluorobenzyl)-D-gluconamide], the cytotoxicity result is reported as “minimally cytotoxic relative to DMSO alone”.
